Test results reported in patent US20120165206A1, “Method and Assay for Glycosylation Pattern Detection Related to Cell State” (priority 2006, published 2012).

Assays:
[1] = tested on: PC12 cells; experiment: Lectin array glycoanalysis (Qproteome Glycoprofiling Kit) of membrane proteins of PC12 cells treated with BFA; format: cell-based; settings: 12 ug/ml BFA, 24 h
Description: (§1) Lectins with differing, well-characterized glycan-binding specificities are spotted on the surface of an array. The array is probed with a biotinylated membrane glycoprotein mixture and washed to reduce background. Bound biotinylated glycoproteins are visualized with Cy®3-labeled streptavidin using a microarray scanner. Following scanning, the resulting images are analyzed using Qiagen GlycoAnalyzer Software.
(§2) Each lectin is printed on the slides at seven concentrations. The analysis provides a lectin fingerprint for each sample: a histogram in which each bar represents the slope of the dose-response curve observed for each lectin. […] All fingerprints in an experiment are preferably normalized to the fingerprint of the reference sample. Microarray technologies generally require normalization between slides to adjust for variations that arise from technology, rather than from biological differences. The normalization in Qproteome Glycoprofiling Kits is preferably based on a robust-regression algorithm (using MM-estimators; please see Example 9 for a description).
Materials and Methods: PC12 cells were treated with 12 ug/ml BFA for 24 h. […] Cells were then harvested and analyzed with the Qproteome Glycoprofiling Kit (Qiagen USA; the assay was performed as described in the kit manual according to manufacturer's instructions).

[2] = tested on: 3T3L1 cells; experiment: Lectin array glycoanalysis (Qproteome Glycoprofiling Kit) of membrane proteins of 3T3L1 cells treated with DMJ; format: cell-based, mouse; settings: pre-confluent 3T3L1 cells, 800 ug/ml DMJ, 3 days, FIG. 4
Description: as §1, §2
Materials and Methods: Pre-confluent 3T3L1 cells were incubated for 3 days in the presence or absence of 800 ug/ml DMJ. Cells were then harvested and analyzed with the Qproteome Glycoprofiling Kit (Qiagen USA; the assay was performed as described in the kit manual according to manufacturer's instructions).

Compound	cell morphology / attachment [1]	antennarity of the membrane glycoproteins (lectin that binds N-linked complex antennary structures) ([1]; FIG. 3)	signals from lectins recognizing terminal sugars such as alpha-galactose, beta-galactose, sialic acid and fucose ([1]; FIG. 3)	antennarity (lectins that bind N-linked complex antennary structures) ([2]; vs non-treated cells)	signals from all oligomannose binding lectins (high mannose glycans) ([2]; vs non-treated cells)	sugars found on antennae termini such as beta galactose and sialic acid [2]
C[C@H]1CCC/C=C/[C@@H]2C[C@H](O)C[C@H]2[C@H](O)/C=C/C(=O)O1 [BFA, Brefeldin A]	morphological changes were observed and cells were detached	significant decrease	Decreases	–	–	–
OC[C@H]1NC[C@@H](O)[C@@H](O)[C@@H]1O [DMJ, 1-deoxymannojirimycin]	–	–	–	strongly reduced	significantly increased	decrease
